Experimental data from US20030040510A1, “Selective estrogen receptor modulators in combination with estrogens” (Endorecherche, Inc., priority 2000, published 2003).
“And” between values parts separate entries of the source, which are not always exact repeats. Equal values may be shown once. “Also recorded” adds a separate entry of the source. Marks after values point to notes of the source that are not given here.

Legend:
[1] = Concentration of EM-652 in the circulation, 6-month rat study; format: in vivo; conditions: intact rats, EM-652 0.5 mg/kg daily, 6-month study
[2] = test system: breast and endometrial tissues; assay: Antiestrogens tested for SERM function and estrogenic activity in breast and endometrium
Excerpt: As used herein, a selective estrogen receptor modulator (SERM) is a compound that either directly or through its active metabolite functions as an estrogen receptor antagonist (“antiestrogen”) in breast tissue, yet provides estrogenic or estrogen-like effect on bone tissue and on serum cholesterol levels (i.e. by reducing serum cholesterol). Non-steroidal compounds that function as estrogen receptor antagonists in vitro or in human or rat breast tissue (especially if the compound acts as an antiestrogen on human breast cancer cells) is likely to function as a SERM. Conversely, steroidal antiestrogens tend not to function as SERMs because they tend not to display any beneficial effect on serum cholesterol. […] These SERMs may be called “pure SERMs”. […] This second series of SERMs may be called “mixed SERMs”. The unwanted estrogenic activities of these “mixed SERMs”, may be inhibited by addition of pure “SERMs” as shown in FIGS. 6 and 7 in in vitro tests and in FIG. 9 in an in vivo test of breast cancer.

[3] = test system: bone metabolism in the rat; conditions: cited from earlier work
[4] = test system: ovariectomized rats; assay: 5-diol alone or with Flutamide and/or EM-800 for 12 months in ovariectomized rats (bone mass, serum markers)
[5] = test system: rat mammary gland and endometrium; assay: 12-week EM-800 treatment of intact rats: serum 17β-estradiol, mammary gland, endometrium; format: in vivo; conditions: 12 weeks
Method: B. Animal treated with EM-800 (0.5 mg/kg, b w per day) for 12 weeks. […] Insert.
B. Animal treated with EM-800 (0.5 mg/kg, b w per day) during 12 weeks.

[6] = test system: ZR-75-1 breast tumor xenografts; assay: Growth of human ZR-75-1 breast tumor xenografts in OVX nude mice supplemented with estrone (DHEA, EM-800; Example 1); conditions: OVX + E1; for Inhibition of E1-stimulated ZR-75-1 tumor size / Average tumor weight: 9.5 months
[7] = test system: uterus and vagina of ovariectomized nude mice; assay: Uterine, vaginal and body weight in the xenograft-bearing OVX nude mice (Example 1); conditions: OVX + E1
[8] = test system: bone metabolism in the rat; assay: Biochemical parameters of bone metabolism (urine, serum) after DHEA and/or EM-800; format: in vivo; conditions: DHEA 10 mg, EM-800 75 μg
Excerpt: Data are expressed as the means±SEM.**: P<0.01 experimental versus respective control.
It is particularly important to indicate that the combination of DHEA and EM-800 exerted unexpected beneficial effects on important biochemical parameters of bone metabolism. […] Moreover, no effect of DHEA could be detected on daily urinary calcium or phosphorus excretion (Luo et al., Endocrinology 138: 4435-4444, 1997). EM-800, decreased the urinary hydroxyproline/creatinine ratio by 48% while, similarly to DHEA, no effect of EM-800 was seen on urinary calcium or phosphorus excretion. EM-800, moreover, had no effect on serum alkaline phosphatase activity, a marker of bone formation while DHEA increased the value of the parameter by about 75% (Luo et al., Endocrinology 138: 4435-4444, 1997).

[9] = EM-800 0.5 mg/kg per day, 0.5 mg/kg/day

Compound: CC1=C(c2ccc(O)cc2)[C@H](c2ccc(OCCN3CCCCC3)cc2)Oc2cc(O)ccc21 [EM-652]
- concentration at 6 months [1]: 0.4 ng/mL

Compound: CC1=C(c2ccc(OC(=O)C(C)(C)C)cc2)[C@H](c2ccc(OCCN3CCCCC3)cc2)Oc2cc(OC(=O)C(C)(C)C)ccc21 [EM-800, (+)-7-pivaloyloxy-3-(4′-pivaloyloxyphenyl)-4-methyl-2-(4″-(2′″-piperidinoethoxy)phenyl)-2H-benzopyran]
- Function as SERM [2]: found to function as SERMs
- Estrogenic activity in breast and endometrial tissues ([2]; physiological or pharmacological concentrations): do not have any estrogenic activity
- Decrease of urinary hydroxyproline/creatinine ratio [3]: 48%
- Effect on daily urinary calcium or phosphorus excretion [3]: no effect
- Increase of serum alkaline phosphatase activity [3]: had no effect
- Additional stimulation of femoral BMD compared to 5-diol alone ([4]; EM-800 100 μg s.c. daily added to 5-diol): 28.4%
- Effect on 5-diol action on bone volume, trabecular number and trabecular separation (histomorphometry) ([4]; added to 5-diol, proximal tibia): further enhanced
- Decrease of serum cholesterol ([4]; addition of EM-800 to 5-diol): 62%
- Elevation of circulating 17β-estradiol vs intact animals ([5]; EM-800 0.5 mg/kg orally daily): 50%
- Endometrium histology [5, 9]: luminal epithelium is markedly reduced in height; also recorded: marked atrophy of the endometrium
- Mammary gland histology [5, 9]: lobules (L) are reduced in size; also recorded: marked atrophy of the mammary gland
- Circulating levels of 17β-estradiol ([5]; intact rats, EM-800 0.5 mg/kg orally daily): 143.5 ± 7.8 pg/mL
- Inhibition of E1-stimulated ZR-75-1 tumor size ([6]; EM-800 15 μg oral daily): 88% and 87.5%
- Inhibition of E1-stimulated ZR-75-1 tumor size ([6]; EM-800 50 μg oral daily): 93% and 93.5%
- Inhibition of E1-stimulated ZR-75-1 tumor size ([6]; EM-800 100 μg oral daily): 94%
- Category of response: Partial ([6]; EM-800 15 μg): 1 (5.9) Number and (%)
- Category of response: Stable ([6]; EM-800 15 μg): 5 (29.4) Number and (%)
- Average tumor weight ([6]; EM-800 15 μg): 0.08 ± 0.03 g
- Category of response: Complete ([6]; EM-800 50 μg): 4 (25.0) Number and (%)
- Category of response: Partial ([6]; EM-800 50 μg): 3 (18.8) Number and (%)
- Category of response: Progression ([6]; EM-800 50 μg): 4 (25.0) Number and (%)
- Category of response: Stable ([6]; EM-800 50 μg): 5 (31.2) Number and (%)
- Average tumor weight ([6]; EM-800 50 μg): 0.03 ± 0.01 g
- Category of response: Complete ([6]; EM-800 100 μg): 8 (50.0) Number and (%)
- Category of response: Partial ([6]; EM-800 100 μg): 0 (0) Number and (%)
- Category of response: Progression ([6]; EM-800 100 μg): 5 (31.2) Number and (%)
- Category of response: Stable ([6]; EM-800 100 μg): 3 (18.8) Number and (%)
- Average tumor weight ([6]; EM-800 100 μg): 0.04 ± 0.03 g
- Uterine weight ([7]; EM-800 15 μg): 49 ± 3 mg
- Vaginal weight ([7]; EM-800 15 μg): 23 ± 1 mg
- Uterine weight ([7]; EM-800 50 μg): 36 ± 2 mg
- Vaginal weight ([7]; EM-800 50 μg): 15 ± 1 mg
- Uterine weight ([7]; EM-800 100 μg): 32 ± 1 mg
- Vaginal weight ([7]; EM-800 100 μg): 11 ± 1 mg
- Serum tALP [8]: 114.11 ± 11.26 IU/L
- Urine HP/Cr [8]: 6.81 ± 0.84** μmol/mmol
- Urine calcium [8]: 17.44 ± 4.5 μmol/24h/100g
- Urine phosphorus [8]: 102.03 ± 25.13 μmol/24h/100g
